Test results as given in patent US6342368B1, “WD-40-derived peptides and uses thereof” (The Board of Trustees of the Leland Stanford Junior …, priority 1994, dated 2002).

What follows are substances tested on PKC binding to recombinant RACK1 (assay: Overlay / overlay-extraction assay: inhibition of PKC binding to recombinant RACK1 by peptides). Settings: 10 μM peptide preincubated with PKC.
Parameters: species or system rat
Protocol: The variation in the overlay protocol consisted of incubating the putative binding peptides with a mixture of PKC isozymes for 15 minutes at room temperature before the mixture was used to contact the nitrocellulose strips containing immobilized RACK1.
Nitrocellulose strips containing immobilized RACK1, that had been contacted with a solution containing a mixture of PKC isozymes, were washed and the area corresponding to the 36 kDa (RACK1-containing) band was cut out. The pieces (containing PKC/RACK1 complexes) were incubated with sample buffer for 10 minutes at 80° C. The sample buffer and the nitrocellulose pieces were then placed in wells in the PAGE gel and subjected to SDS-PAGE to elute the bound proteins. The gel was blotted onto nitrocellulose and a Western blot analysis was carried out using the mixture of antibodies (specific for PKC α, β, γ, δ, ε and ζ isozymes) described in Example 1 part B. Bound antibodies were detected by ^125I-protein A.
Peptides derived from or homologous to WD-40 repeats of RACK1 were tested for their ability to inhibit PKC binding to recombinant RACK1. Binding of PKC to RACK1 was carried out using a variation of the overlay procedure described in Example 3 part B. In the experimental samples, peptides were incubated with a solution containing a mixture of rat brain PKC isozymes (˜10 nM each) for 15 minutes at room temperature.
Following completion of the modified overlay protocol, the samples were subjected to the overlay-extraction protocol detailed in part B, above.
The results in FIG. 3 show the binding of PKC to RACK1, carried out without (lane 1) or with (lanes 2-4) a preincubation of peptides with PKC. […] Peptide I caused an 81±6% inhibition of PKC binding to recombinant RACK1 as compared with binding in the absence of added peptide (n=3). Lanes 3 and 4 show PKC binding following a preincubation with 10 μM peptide rIII (SEQ ID NO:4) and 10 μM peptide rVI (SEQ ID NO:7), respectively. […] The results shown are representative of three independent experiments.

Substance | inhibition of PKC binding to RACK1 (in words)
rIV: synthetic peptide based on the corresponding region of RACK1 WD-40 repeat IV (VSCVRFS) | lesser inhibitory effect
peptide rI: synthetic peptide based on the corresponding region of RACK1 WD-40 repeat I (VTQIATT) | effective inhibitors
peptide rII: synthetic peptide based on the corresponding region of RACK1 WD-40 repeat II (FVSDVVI) | effective inhibitors
peptide rVII: synthetic peptide based on the corresponding region of RACK1 WD-40 repeat VII (PQCTSLA) | no inhibition
peptide rV: synthetic peptide based on the corresponding region of RACK1 WD-40 repeat V (GYLNTVT) | lesser inhibitory effect
